In brackets after ≈: the same amount, converted by molar mass. Several values for one entry are separate records, joined by “and”; a condition that tells them apart may be missing. Equal entries are not always repeated. Where two headings read alike, the source gives them in different places.
What was measured:
[1] = system: Escherichia coli (E. coli); experiment: In vitro antibacterial activity, progressive double dilutions, culture turbidity; assay type: cell-based; conditions: for MIC: ampicillin reference against E.coli (BL21)
Excerpt: (§1) The growth of bacteria was estimated by measuring the turbidity of the culture, as previously reported. […] The pH of the media was adjusted to 7.0.

[2] = system: Bacillus cereus (B. cereus); experiment: as above; assay type: cell-based
Excerpt: as §1

[3] = system: Bacillus subtilis (B. subtilis); experiment: as above; assay type: cell-based
Excerpt: as §1

[4] = system: Staphylococcus aureus (S. aureus); experiment: as above; assay type: cell-based
Excerpt: as §1

[5] = Reduction of hydrogen peroxide; conditions: compound 0.1 mM, 20 min, phosphate buffer pH 7.4
Procedure: In vitro antioxidant activity studies for 1–4 and their free ligands were performed in order to determine their ability to scavenge DPPH, and ABTS free radicals and to reduce H2O2 and was compared with the antioxidant capacity of reference compounds (NDGA, BHT, trolox and ascorbic acid).
The absorbance was measured at 230 nm after 20 min. The antioxidant activity of the compounds was expressed as percent reduction of H2O2 (%H2O2). Ascorbic acid (or vitamin C) was used as an appropriate standard.

[6] = system: MRC5 human normal lung cells; experiment: MTT cytostatic/cytotoxic assay; assay type: cell-based; conditions: MRC5, 48 h treatment; for IC50: cytocidal/cytotoxic; for GI50: growth inhibition; for TGI: total growth inhibition
Procedure: (§2) The cell lines were obtained from the American Type of Culture collection (ATCC), except HuP-T3 which was kindly donated from University of Crete, School of Medicine, Greece, and were grown in different culture medium according to the instructions.
(§3) For the determination of the cell viability, it was employed the MTT assay. Cells were plated in 96-well plate at a density of 1 × 10^4 cells/mL per well and maintained for 72 h at 37 °C in a 5% CO2 incubator and grown as monolayers. […] The viability of cultured cells was estimated by a (3-(4,5-imethylthiazol-2-yl)-2,5-diphenyltetrazolium bromide (MTT) metabolic assay as previously described.
(§4) In brief, MTT (Sigma, St Louis, Missouri, USA) was dissolved in PBS in a concentration of 5 mg/mL, filter sterilized, and stored at 4 °C. Then, 50 μL of stock solution was added to each culture and incubated for 3 h at 37 °C. Formazan crystals were solubilized by DMSO (100 μL). Absorbance of the converted dye was measured at a wavelength of 540 nm on ELISA reader (VersaMax Microplate Reader Orleans, USA). […] Using seven absorbance measurements [time 24 h (Ct24), control growth 72 h (Ct72), and test growth in the presence of drug at five concentration levels (Tt72x)], the percentage of growth was calculated at each level of the drug concentrations. The percentage growth inhibition was calculated according to National Cancer Institute (NCI) as: {[(Tt72x) − (Ct24)]/[(Ct72) − (Ct24)]} × 100 for concentrations for which Tt72x>Ct24 and {(Tt72x) − (Ct24)]/(Ct24)} × 100 for concentrations for which Tt72x<Ct24. […] All experiments were carried out in triplicate. A significant difference was presumed to exist when p ≤ 0.05 (two tailed paired t test).

[7] = system: PC3 prostate adenocarcinoma cells; experiment: MTT cytostatic/cytotoxic assay; assay type: cell-based, human; conditions: PC3, 48 h treatment; for LC50: cytocidal/cytotoxic, read-out: IC50 (the source's name); for GI50: growth inhibition; for TGI: total growth inhibition
Procedure: as §2, §3, §4

[8] = system: Hup-T3 pancreatic adenocarcinoma cells; experiment: MTT cytostatic/cytotoxic assay; assay type: cell-based, human; conditions: Hup-T3, 48 h treatment; for IC50: cytocidal/cytotoxic; for GI50: growth inhibition; for TGI: total growth inhibition
Procedure: as §2, §3, §4

[9] = system: DMS114 small cell lung cancer cells; experiment: MTT cytostatic/cytotoxic assay; assay type: cell-based, human; conditions: DMS114, 48 h treatment; for LC50: cytocidal/cytotoxic, read-out: IC50 (the source's name); for GI50: growth inhibition; for TGI: total growth inhibition
Procedure: as §2, §3
as §4, with “Using seven absorbance measurements [time 24 h (Ct24), control growth 72 h (Ct72), and test growth in the presence of drug at five concentration levels (Tt72x)], the percentage of growth was calculated at each level of the drug concentrations.” left out

[10] = system: SKOV-3 ovarian cancer cells; experiment: MTT cytostatic/cytotoxic assay; assay type: cell-based, human; conditions: SKOV-3, 48 h treatment; for LC50: cytocidal/cytotoxic, read-out: IC50 (the source's name); for GI50: growth inhibition; for TGI: total growth inhibition
Procedure: as §2, §3
as §4, with “Using seven absorbance measurements [time 24 h (Ct24), control growth 72 h (Ct72), and test growth in the presence of drug at five concentration levels (Tt72x)], the percentage of growth was calculated at each level of the drug concentrations.” left out

calf-thymus (CT) DNA = experiment: CT DNA interaction by UV-visible spectroscopy; conditions: DMSO solution, upon addition of CT DNA; + hyperchromism, – hypochromism
Procedure: The UV-visible spectra of CT DNA solution (1.5 × 10^−4 M) were recorded in the presence of each compound at diverse [compound]/[DNA] mixing ratios (r).

[11] = Escherichia coli, read-out: MIC
[12] = Bacillus cereus, read-out: IC50
[13] = Escherichia coli, read-out: IC50
[14] = Bacillus subtilis, read-out: IC50
[15] = Bacillus subtilis, read-out: MIC
[16] = Staphylococcus aureus, read-out: IC50
[17] = Staphylococcus aureus, read-out: MIC
[18] = value in parentheses, mean ± SD, read-out: IC50

| SMILES | MIC [1, 11] | H2O2 reducing ability (%H2O2) [5] | IC50 [2] | MIC [2] | IC50 [2, 18] | IC50 [1] | MIC [1] | IC50 [3] | MIC [3] | IC50 [3, 18] | IC50 [4] | MIC [4] | IC50 [4, 18] | IC50 [6] | GI50 [6] | TGI [6] | also measured |
| --- | --- | --- | --- | --- | --- | --- | --- | --- | --- | --- | --- | --- | --- | --- | --- | --- | --- |
| CC1(C)S[C@@H]2[C@H](NC(=O)[C@H](N)c3ccccc3)C(=O)N2[C@H]1C(=O)O [Ampicillin, reference compound] | 100 µg/mL (≈ 286 µM) | – | – | – | – | – | – | – | – | – | – | – | – | – | – | – | – |
| c1ccc(P(CCP(c2ccccc2)c2ccccc2)c2ccccc2)cc1 [dppe, 1,2-bis(diphenylphosphino)ethane, reference compound] | > 100 µg/mL | 92.64±0.71% | – | – | – | – | – | – | – | – | – | – | – | – | – | – | IC50 [2, 12]: > 100 µg/mL; MIC ([2]; Bacillus cereus, read-out: MIC): > 100 µg/mL; IC50 [1, 13]: > 100 µg/mL; IC50 [3, 14]: > 100 µg/mL; MIC [3, 15]: > 100 µg/mL; IC50 [4, 16]: > 100 µg/mL; MIC [4, 17]: > 100 µg/mL |
| O=C1O[C@H]([C@@H](O)CO)C(O)=C1O [L-ascorbic acid, reference compound] | – | 60.80±0.20% | – | – | – | – | – | – | – | – | – | – | – | – | – | – | – |
| Cc1n[nH]c(=S)s1.[Cl][Ag].c1ccc(P(c2ccccc2)c2ccccc2)cc1.c1ccc(P(c2ccccc2)c2ccccc2)cc1 [Compound 1, [AgCl(mtdztH)(PPh3)2]] | – | 74.85±0.79% | 81 µg/mL | 100 µg/mL | 101 ± 10.3 µM | higher than 100 μg/mL | higher than 100 μg/mL | 21 µg/mL | 100 µg/mL | 26 ± 4 µM | 16 µg/mL | 100 µg/mL | 20 ± 3.2 µM | 9.2 ± 0.8 µM | 3 ± 0.5 µM | 5.2±0.5 μΜ | activity against the Gram-(–) E. coli bacteria (in words) [1]: negligible activity; LC50 [7]: 9.6 ± 0.5 µM; GI50 [7]: 3 ± 0.3 µM; TGI [7]: 5.7±0.5 μΜ; IC50 [8]: 9.2 ± 0.3 µM; GI50 [8]: 2.2 ± 0.2 µM; TGI [8]: 4.1±0.3 μΜ; LC50 [9]: 4.5 ± 0.3 µM; GI50 [9]: 1.9 ± 0.1 µM; TGI [9]: 3.1±0.1 μΜ; LC50 [10]: 5.7 ± 0.4 µM; GI50 [10]: 1.2 ± 0.2 µM; TGI [10]: 3.1±0.4 μΜ |
| Cc1nnc([S][Ag])s1.c1ccc(P(c2ccccc2)c2ccccc2)cc1.c1ccc(P(c2ccccc2)c2ccccc2)cc1.c1ccc(P(c2ccccc2)c2ccccc2)cc1 [Compound 2, [Ag(mtdzt)(PPh3)3]] | – | 80.59±0.55% and 80% | 12.5 µg/mL | 100 µg/mL | 12 ± 1.4 µM | higher than 100 μg/mL | higher than 100 μg/mL | 20 µg/mL | 100 µg/mL | 19 ± 2.8 µM | 17 µg/mL | 100 µg/mL | 16 ± 2.6 µM | 4.1 ± 0.06 µM | 2 ± 0.02 µM | 3.0±0.05 μΜ | activity against the Gram-(–) E. coli bacteria (in words) [1]: negligible activity; LC50 [7]: 4.4 ± 0.15 µM; GI50 [7]: 2 ± 0.05 µM; TGI [7]: 3.2±0.12 μΜ; IC50 [8]: 4.5 ± 0.2 µM; GI50 [8]: 1.9 ± 0.2 µM; TGI [8]: 3.2±0.2 μΜ; LC50 [9]: 4 ± 0.25 µM; GI50 [9]: 1.2 ± 0.05 µM; TGI [9]: 2.6±0.1 μΜ; LC50 [10]: 4.1 ± 0.3 µM; GI50 [10]: 1.9 ± 0.2 µM; TGI [10]: 3.0±0.3 μΜ |
| N.N.[Cl][Pt][Cl] [Cisplatin, reference compound] | – | – | – | – | – | – | – | – | – | – | – | – | – | 36 ± 2 µM | 8 ± 1 µM | 24±2 μΜ | – |
| Cc1nnc(S)s1 [mtdztH, 5-methyl-1,3,4-thiadiazole-2-thiol, reference compound] | > 100 µg/mL | 97.17±0.10% | – | – | – | – | – | – | – | – | – | – | – | – | – | – | IC50 [2, 12]: 21 µg/mL; MIC ([2]; Bacillus cereus, read-out: MIC): > 100 µg/mL; IC50 ([2]; Bacillus cereus, value in parentheses, mean ± SD, read-out: IC50): 159 ± 8.9 µM; IC50 [1, 13]: 30 µg/mL; IC50 ([1]; Escherichia coli, value in parentheses, mean ± SD, read-out: IC50): 227 ± 6 µM; IC50 [3, 14]: 53 µg/mL; MIC [3, 15]: > 100 µg/mL; IC50 ([3]; Bacillus subtilis, value in parentheses, mean ± SD, read-out: IC50): 401 ± 16.2 µM; IC50 [4, 16]: 21 µg/mL; MIC [4, 17]: > 100 µg/mL; IC50 ([4]; Staphylococcus aureus, value in parentheses, mean ± SD, read-out: IC50): 159 ± 9 µM; percentage of hyper-/hypochromism ΔA/Aο (calf-thymus (CT) DNA): –12% |
| c1ccc(P(c2ccccc2)c2ccccc2)cc1 [PPh3, thriphenylphosphine, reference compound] | – | 87.96±1.32% | 70 µg/mL | higher than 100 μg/mL | 267 ± 9 µM | 51 µg/mL | higher than 100 μg/mL | higher than 100 μg/mL | higher than 100 μg/mL | > 380 µM | 70 µg/mL | higher than 100 μg/mL | 267 ± 2.2 µM | – | – | – | IC50 [1, 18]: 194 ± 2 µM |
